One compound from patent US20210122739A1, “NOVEL SULFONAMIDE CARBOXAMIDE COMPOUNDS” (Inflazome Limited, priority 2017, published 2021) can be followed below.

The structures appear in SMILES notation.

Data set [1] can be described thus: PK protocol: pharmacokinetic parameters in male Sprague Dawley rats. The class given is in vivo. The conditions noted are these: plasma, rat. Here is the method: Pharmacokinetic parameters were determined in male Sprague Dawley rats (Charles River, UK, 250-350 g; or Vital River Laboratory Animal Technology Co Ltd, Beijing, China, 7-9 weeks old). Animals were individually housed during the study and maintained under a 12 h light/dark cycle. Animals had free access to food and water except that some orally dosed animals were food deprived overnight prior to the study.
For intravenous administration, compounds were formulated as a solution in water or DMSO:PBS [10:90] in 2 mL/kg dosing volume and administered via tail vein. For oral administration, compounds were formulated as a solution in water or DMSO:water [10:90] in 5 mL/kg dosing volume and administered orally.
Serial blood samples (about 120-300 μL) were taken from each animal at each of 8 time-points post dose (0.083, 0.25, 0.5, 1, 2, 4, 8 and 24 h) or at each of 12 time-points post dose (0.03, 0.1, 0.17, 0.25, 0.5, 1, 2, 4, 6, 8, 12 and 24 h) or pre-dose and at each of 9 time-points post dose (0.25, 0.5, 1, 2, 4, 6, 8, 12 and 24 h). Samples were held on ice for no longer than 30 minutes before centrifugation (10,000 rpm (8,385 g) for 3 minutes; or 5,696 rpm (3,000 g) for 15 minutes) for plasma generation. Plasma was frozen on dry ice prior to bioanalysis. PK parameters were generated from LC-MS/MS data using Dotmatics or Phoenix WinNonlin 6.3 software.

Data set [2] concerns the target T1, NLRP3 (Homo sapiens, UniProt Q96P20). Briefly: THP-1 cells pyroptosis assay. The data set is classed as cell-based. Also on record: Seed THP-1 cells (25,000 cells/well) containing 1.0 μg/ml LPS; host or cells: THP-1 cells, LPS-primed, nigericin-stimulated. The conditions noted are these: 1.0 μg/ml LPS, nigericin 5 μM, resazurin readout. The method, boiled down:
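THP-1 cells (25,000/well, serum-free RPMI) primed with 1 μg/ml LPS were given compound (8-point half-log series, top 10 μM; 0.1% DMSO) for 3 h at 37 °C, then 5 μM nigericin for 1 h. Viability read by 100 μM resazurin fluorescence (Ex 560/Em 590) after 1–2 h; IC50 from four-parameter nonlinear regression.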

In data set [3] the target is T1, NLRP3. Kind of data set: Human whole blood IL1β release assay. Also on record: Plate out 80 μl of whole blood containing 1 μg/ml of LPS; from tissue; host or cells: human whole blood from healthy donors, LPS-primed, nigericin-stimulated. The conditions noted are these: 1 μg/ml LPS, nigericin 10 μM, IL-1β by AlphaLisa, read-out: HWB IC50. The data set is classed as cell-based.

Where [4] appears, read: intravenous administration, dose per compound in Dose column (0.83-5.05 mg/kg).
Where [5] appears, read: oral administration, dose per compound in Dose column (3 or 5 mg/kg).

T1 sequence (Q96P20 whole entry): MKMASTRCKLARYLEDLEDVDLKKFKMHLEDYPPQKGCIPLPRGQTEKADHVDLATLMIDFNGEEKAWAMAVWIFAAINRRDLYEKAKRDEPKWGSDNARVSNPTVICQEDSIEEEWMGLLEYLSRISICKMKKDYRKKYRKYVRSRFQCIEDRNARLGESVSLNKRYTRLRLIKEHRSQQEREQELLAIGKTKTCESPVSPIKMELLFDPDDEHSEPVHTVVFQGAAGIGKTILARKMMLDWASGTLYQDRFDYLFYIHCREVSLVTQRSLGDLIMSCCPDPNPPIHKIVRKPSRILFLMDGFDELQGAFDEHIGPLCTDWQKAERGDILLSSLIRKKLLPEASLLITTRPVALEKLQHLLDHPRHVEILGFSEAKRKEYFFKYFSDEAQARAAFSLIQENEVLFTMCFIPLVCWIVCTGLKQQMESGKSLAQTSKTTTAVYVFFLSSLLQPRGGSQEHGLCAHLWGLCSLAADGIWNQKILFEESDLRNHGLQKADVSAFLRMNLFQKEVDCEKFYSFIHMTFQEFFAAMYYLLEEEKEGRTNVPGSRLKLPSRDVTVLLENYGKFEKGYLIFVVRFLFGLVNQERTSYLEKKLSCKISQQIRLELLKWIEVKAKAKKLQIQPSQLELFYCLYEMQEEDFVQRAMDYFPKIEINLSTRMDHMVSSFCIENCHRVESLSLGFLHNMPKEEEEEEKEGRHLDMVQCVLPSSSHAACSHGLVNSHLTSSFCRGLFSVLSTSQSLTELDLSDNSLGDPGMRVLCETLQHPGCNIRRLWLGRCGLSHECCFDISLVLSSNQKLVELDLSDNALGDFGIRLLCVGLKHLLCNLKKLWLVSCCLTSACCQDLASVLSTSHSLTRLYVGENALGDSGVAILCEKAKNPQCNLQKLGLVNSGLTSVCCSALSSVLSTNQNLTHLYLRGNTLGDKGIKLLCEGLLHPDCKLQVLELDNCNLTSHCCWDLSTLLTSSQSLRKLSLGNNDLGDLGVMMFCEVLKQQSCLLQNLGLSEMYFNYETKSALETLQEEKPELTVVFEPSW

As to `CN(C)C(=O)c1cc(S(=O)(=O)NC(=O)Nc2c3c(cc4c2CCC4)CCC3)nn1C` [Example 69, 3-(N-((1,2,3,5,6,7-Hexahydro-s-indacen-4-yl)carbamoyl)sulfamoyl)-N,N,1-trimethyl-1H-pyrazole-5-carboxamide], in data set [1] (setting [4]), the AUC amounted to 3390 ng·h/mL, the clearance was 24.8 mL/min/kg and the half-life was 25.3 h. In data set [1] (intravenous administration, dose per compound in Dose column (0.83-5.05 mg/kg), read-out: Vdss), the Vd stood at 17.8 L/kg. In addition, in data set [1] (setting [5]), the AUC is 1050 ng·h/mL, the CL/F is 49.5 mL/min/kg, the Cmax was 600 ng/mL and the Tmax worked out at 0.25 h. In data set [1] (setting [5]), this compound showed a bioavailability of 62% and a half-life of 3.4 h. On NLRP3 [2], the IC50 lay in the range of 40 to 160 nM. The 50% inhibitory concentration (IC50) on NLRP3 [3] was under 400 nM.
